# Reference: patent US20050049305A1, “Use of L-carnitine in the prevention and treatment of hearing loss” (priority 2002, published 2005)
# Read-outs that look alike come from different tables or passages of the source. Marks after values point to notes of the source that are not given here.
# Experiments:
# [1] = tested on: outer hair cells (OHCs) of organ of Corti; assay type: in vivo
# Description: Pregnant guinea pigs were divided in three groups of 4 each. […] Those from group #2 also received a supplementary dose of LCAR in their drinking water (1 mg/ml ad libitum˜100 mg/kg/day) during the second half of the pregnancy and the immediate postnatal period. Guinea pigs from group #3 (4 mothers & 10 newborns), the control group, were injected with saline solution. Two weeks after delivery, all guinea pigs (mothers and newborns) were anesthetized by intraperitoneal injections of ketamine hydrochloride (60 mg/kg) and xylazine hydrochloride (5 mg/kg), and their auditory brainstem responses (ABR) were measured. They were then euthanized with CO2, and potential cochlear damage was evaluated by confocal microscopy.
# The ABR results described in FIG. 1 were independently corroborated by confocal microscopy of the organ of Corti in mothers and newborns. […] The results of FIG. 2 are quantified in Table 1 and FIG. 3.
# [2] = tested on: guinea pigs (mothers and newborns); assay: Cisplatin-induced sensorineural hearing loss, auditory brainstem response (ABR); assay type: in vivo, guinea pig; conditions: two weeks after delivery, cisplatin 4 mg/kg i.p. once a day for 2 days, LCAR 1 mg/ml in drinking water, mean ±S.E.M.
# HEI-OC1 cells [3] = assay: Cisplatin-induced apoptosis, DNA laddering and TUNEL; assay type: cell-based, mouse
# Source text: The HEI-OC1 cell line was cloned from cochlear half-turn explants from of an Immortomouse™. […] They are polygonal squamous cells with a dense perinuclear region containing a dense accumulation of multivesicular structures. These multivesicular structures were also observed in the rest of the cytoplasm, although at a lower density. HEI-OC1 cells co-express markers specific for both sensory and supporting cells. Expression of Math-1 and myosin VIIa by these cells indicate that HEI-OC1 cells are indeed sensory hair cell precursors.
# Apoptosis was confirmed using TUNEL (ApoAlert DNA Fragmentation Assay—Clontech, Palo Alto, Calif.).
# HEI-OC1 cells [4] = assay: Caspase-8 and caspase-9 assays in cisplatin-treated cells; assay type: cell-based, mouse
# HEI-OC1 cells [5] = assay: LCAR prevention of cisplatin- and gentamicin-induced apoptosis, colorimetric CaspACE assay; assay type: cell-based, mouse; conditions: 48 hours pre-incubation with 2 mg/ml LCAR
# Source text: We further investigated whether LCAR was able to prevent cisplatin- and gentamicin-induced apoptosis in HEI-OC1 cells.
# [6] = tested on: outer hair cells (OHCs) and stereocilia bundles; assay: Gentamicin-induced cochlear damage, confocal and scanning electron microscopy; assay type: in vivo, guinea pig
# Description: (§1) Guinea pigs were used to evaluate the impact of prenatal LCAR supplementation on stress- and gentamicin-induced mortality in newborns because this animal model closely resembles perinatal human physiology. Pregnant guinea pigs (n=25) were divided in five groups. […] In group #2, stress was induced by intraperitoneal injections of normal saline (once daily from days 51 to 57 of gestation). Guinea pigs in group #3 were injected with gentamicin (100 mg/kg once daily from days 51 to 57 of gestation). Finally, groups #4 and #5 were injected with gentamicin as described for group #3, but received LCAR supplementation in their water supply (1 mg/ml˜100 mg/kg/day) starting either 2 weeks prior (Group #4) or simultaneously with gentamicin (Group #5). Newborn mortality was defined as either stillborn or death within the first 48 hrs of life.
# Confocal and electron microscopy studies indicate that gentamicin induces both sensory cell death and stereocilia disruption in mothers and newborn guinea pigs. […] Whereas in Control animals the three rows of OHCs look generally intact (FIG. 6B), cochleas from guinea pigs treated with gentamicin show “scars” where supporting cells replaced dead OHCs (FIG. 6C). In addition, stereocilia bundles look completely disorganized, with significant structural changes and even “giant” stereocilia (FIG. 6D). […]
# newborn guinea pigs [7] = assay: Noise-induced neonatal mortality; assay type: in vivo, guinea pig; conditions: group #2: broadband noise 95 SPL 4 h/day, days 50-53 of gestation; LCAR 1 mg/ml in water from day 28
# Description: (§2) In order to evaluate noise-induced neonatal mortality and the potential impact of prenatal LCAR supplementation, six pregnant guinea pigs were divided into three groups of two animals each. Pregnant guinea pigs in groups #1 and #2 were exposed 4 hours a day during 4 consecutive days to broadband noise (100 Hz-10 kHz) at 95 SPL during days 50 to 53 of gestation. In addition, guinea pigs in group #2 received daily LCAR supplementation in their water supply (1 mg/ml˜100 mg/kg/day) from day 28 of gestation. […] Noise exposure was performed in a sound booth, with the animals in individual plastic cages placed on a wire shelf at ˜0.8 m above the floor. Since at this time of pregnancy guinea pigs spend most of the time resting with the abdomen in contact with the cage floor, the speakers were placed below the shelf, with the sound waves directed toward the cage's floor. Sound pressure levels were measured with a calibrated digital sound level meter (Radio Shack #33-2055) inside the plastic cages.
# The experimental protocol assume normal delivery after 59-62 days of pregnancy. In fact, control animals delivered at days 59 and 61, respectively. […] Neonatal mortality—expressed as the number of stillborn or newborn death within the first 48 hrs of life over the total number of animals delivered—was 77% in group #1 ( 7/9), 9% in group #2 ( 1/11), and 0% in group #3 (0/9).
# newborn guinea pigs [8] = assay: Gentamicin-induced neonatal mortality; assay type: in vivo, guinea pig
# Description: as §1
# [9] = tested on: guinea pigs (mothers and newborns); assay: Noise-induced hearing loss (ABR) and cochlear damage; assay type: in vivo, guinea pig
# Description: as §2
# Noise-induced cochlear damage and changes in hearing threshold were evaluated in mothers and newborns (ten days after delivery) in the three groups described in the above paragraph. We found moderate threshold shifts (˜9 dB) in mothers exposed to noise (group #1). […] In newborns, we also observed a higher hearing threshold in noise-exposed animals than in those of the control group (36±2 dB group #1 and 30±1 dB group #2 vs. 22±1 dB group #3 control).
# Similar damage, but concentrated in smaller regions, was present in cochleas from LCAR-supplemented animals.
# [10] = tested on: guinea pigs (mothers and newborns); assay: Gentamicin-induced sensorineural hearing loss, ABR; assay type: in vivo
# Description: as §1, with “Finally, groups #4 and #5 were injected with gentamicin as described for group #3, but received LCAR supplementation in their water supply (1 mg/ml˜100 mg/kg/day) starting either 2 weeks prior (Group #4) or simultaneously with gentamicin (Group #5).” left out
# We investigated the hearing condition and cochlear integrity in the guinea pigs from the five experimental groups described in the above paragraph. Typical ABR recordings from newborn guinea pigs are shown in FIG. 4, while FIG. 5 describes the statistical results. […] Gentamicin (group #3), in contrast, induced a significant increase in hearing threshold in respect to saline (group #2) in mothers (49±3 dB vs. 28±2; P≦0.01) and newborns (38±2 vs. 29±1; P≦0.01).
# [11] = humans, cited from earlier work
# [12] = Coleman et al. 2001; cited from earlier work
# [13] = LCAR + Gentamicin = LCAR two weeks prior, Gentamicin + LCAR = simultaneous
compound,measurement,setting,value
"N.N.[Cl][Pt][Cl] [Cisplatin, cisplatin]",cisplatin-induced inner hair cell (IHC) damage,"[1]; guinea pig, in vivo",no significant
same,loss of OHCs by cochlear turn,"[1]; guinea pig, in vivo",significant loss of OHCs in the first and second turn of the cochlea
same,Total % (damaged/total OHCs),[1]; mothers,36.0 (297/824) %
same,damaged OHC (%) Row #1,[1]; mothers,39.6%
same,damaged OHC (%) Row #2,[1]; mothers,32.6%
same,damaged OHC (%) Row #3,[1]; mothers,35.9%
same,Total % (damaged/total OHCs),[1]; newborns,34.9 (443/1268) %
same,damaged OHC (%) Row #1,[1]; newborns,50.2%
same,damaged OHC (%) Row #2,[1]; newborns,37.9%
same,damaged OHC (%) Row #3,[1]; newborns,16.9%
same,average ABR hearing threshold,[2],46±4 dB
same,incubation time after which DNA laddering was visible,"HEI-OC1 cells [3]; 100 μM cisplatin, periods 6 hours to 24 hours",18 h
same,cisplatin concentration at which apoptosis (laddering pattern) was first detected,"HEI-OC1 cells [3]; 24 hours incubation, doses 25 μM to 500 μM",100 µM
same,caspase-9 activity,HEI-OC1 cells [4]; 12-hour incubation with 100 μM cisplatin,increased about five-fold
same,caspase-8 activity,HEI-OC1 cells [4]; cisplatin-treated HEI-OC1 cells,little change in activity
"C[N+](C)(C)C[C@H](O)CC(=O)[O-] [LCAR, L-carnitine]",effect of LCAR supplementation on cisplatin-induced OHC damage,[1]; mothers and newborns,attenuates this cisplatin-induced OHC damage
same,"gentamicin-induced cell apoptosis (caspase-3, CaspACE)",HEI-OC1 cells [5]; then 24 hours 50 μM gentamicin,significantly inhibited
same,"cisplatin-induced cell apoptosis (caspase-3, CaspACE)",HEI-OC1 cells [5]; then 24 hours 200 μM cisplatin,significantly inhibited
same,effect on gentamicin-induced OHC death,[6]; LCAR prior vs simultaneous,significantly prevented only in animals supplemented with LCAR two weeks prior gentamicin treatment
same,effect on gentamicin-induced stereocilia disruption,[6]; LCAR provided either prior or simultaneously with gentamicin,inhibit gentamicin-induced stereocilia disruption
same,neonatal mortality (stillborn or death within first 48 hrs),newborn guinea pigs [7],9%
same,neonatal mortality (stillborn or death within first 48 hrs),newborn guinea pigs [8]; group #4: gentamicin plus LCAR 1 mg/ml in water starting 2 weeks prior,15%
same,neonatal mortality (stillborn or death within first 48 hrs),newborn guinea pigs [8]; group #5: gentamicin plus LCAR 1 mg/ml in water starting simultaneously,9%
same,noise-induced cochlear damage (microscopy),[9]; LCAR-supplemented noise-exposed animals,significant decrease in cochlear damage
same,hearing threshold shift in noise-exposed mothers,"[9]; mothers, LCAR supplemented, ten days after delivery",no changes were observed
same,hearing threshold in newborns,"[9]; newborns, group #2 noise + LCAR, ten days after delivery",30±1 dB
same,effect of LCAR supplementation on gentamicin ototoxicity (ABR),[10]; LCAR from 28 days of pregnancy (group #4) or coincidental with gentamicin (group #5),attenuates the ototoxic effects of gentamicin in both mothers and pups
same,dietary LCAR absorbed,[11]; dietary,54-87%
same,LCAR filtered by the kidney that is reabsorbed,[11],90-98%
"CC(=O)O[C@H](CC(=O)[O-])C[N+](C)(C)C [ALCAR, acetyl-L-carnitine]",effect on noise-induced hearing loss,[12],attenuates noise-induced hearing loss
gentamicin,"OHC death, OHCs % Row #1",[6]; [13],0.6* %
same,"OHC death, OHCs % Row #2",[6]; [13],0.9** %
same,"OHC death, OHCs % Row #3",[6]; [13],0.8** %
same,"OHC death, Total %",[6]; [13],0.7** %
same,neonatal mortality (stillborn or death within first 48 hrs),"newborn guinea pigs [8]; group #3: gentamicin 100 mg/kg once daily, days 51 to 57 of gestation",54%
same,"ABR hearing threshold, mothers","[10]; mothers, group #3 gentamicin 100 mg/kg daily, days 51-57 of gestation",49±3 dB
same,"ABR hearing threshold, newborns","[10]; newborns, group #3 gentamicin given to pregnant mothers",38±2 dB
